According to patent US12043625B2, “Pyridine derivatives with c-linked cyclic substituents as cGAS inhibitors” (BOEHRINGER INGELHEIM INTERNATIONAL GMBH, priority 2021, dated 2024):

Columns and labels:
[1] = test system: IFN induction in virus-stimulated THP1 cells; experiment: Human cGAS cell assay, baculovirus-stimulated THP1-Dual cells, Lucia luciferase reporter (THP1(vir) IC50); assay type: cell-based; settings: for IC50: Homo sapiens, THP-1; for Ratio THP(cGAMP) IC50/THP(vir) IC50: selectivity for cGAS inhibition;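 for all read-outs here: IRF-dependent luminescence, 8 concentrations up to 10 µM in 1% DMSO, 0% = unstimulated cells, 100% = DMSO plus virus, counter assay stimulated with cGAMP downstream of cGAS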
Text: THP1-Dual™ cells (InvivoGen #thpd-nfis) expressing IRF dependent Lucia luciferase reporter were used as basis for both assays. For the detection of cellular cGAS activity cells were stimulated by a baculovirus (pFastbac-1, Invitrogen, no coding insert) infection that delivers the cGAS enzyme stimulating double-stranded DNA (measurement of THP1(vir) IC50).
(§1) For the counter assay, cells were stimulated by cGAMP (SigmaAldrich #SML1232) to activate the identical pathway independent and directly downstream of cGAS (measurement of THP1(cAMP) IC50). Pathway activity was monitored by measuring the Lucia luciferase activity induced by either DNA stimulated cGAS enzyme activity (measurement of THP1^(vir) IC50) or by cGAMP directly (measurement of THP1(cAMP) IC50, counter assay).
Typically, 8 concentrations were used with the highest concentration at 10 μM in the final assay volume followed by ˜1:5 dilution steps. DMSO concentration was set to 1% in the final assay volume. The 384 well assay plate contained 21 test compounds (column 1-22), and DMSO in column 23 and 24.
The baculovirus solution was then added 1:200 (may have varied according to virus batch) to the cells (measurement of THP1(vir) IC50).
(§2) 30 μL of the cell/virus-mix were added to each well of the compound plate from column 1-23 via MultiDrop Combi dispenser (5000 cells/well). In column 24, 30 μl/5000 cells/well without virus were added as a low control.
(§3) The plates were then incubated for 18 h at 37° C. in a humidified incubator.
(§4) Following that, 15 μL of QuantiLuc detection reagent (InvivoGen #rep-qlcg5) were added to each well using a MultiDrop Combi. Measurement was done immediately after the addition using an EnVision reader (US-luminescence read-mode).
Data Evaluation and Calculation:
(§5) For data evaluation and calculation, the measurement of the low control was set as 0% control and the measurement of the high control was set as 100% control. The IC50 values were calculated using the standard 4 parameter logistic regression formula. Calculation: [y=(a−d)/(1+(x/c)^b)+d], a=low value, d=high value; x=conc M; c=1C50 M; b=slope

[2] = test system: IFN induction in dsDNA-stimulated human whole blood; experiment: Human whole blood assay, dsDNA transfection, IFNα2a production (hWB IC50); assay type: cell-based;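 note: cGAS pathway activity, IFNα2a in plasma by MSD immunoassay after 22 h at 37 °C, 8 concentrations up to 10 µM in 0.1% DMSO, DMSO controls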
Experimental: For the detection of cellular cGAS activity human whole blood was stimulated by transfection with double stranded DNA. Pathway activity was monitored by measuring the IFNα2α production.
Typically, 8 concentrations were used with the highest concentration at 10 μM in the final assay volume followed by ˜1:5 dilution steps. DMSO concentration was set to 0.1% in the final assay volume. The 96-well assay plate contained 10 test compounds, and DMSO in control wells.
Whole blood was kept at room temperature for a maximum of 3 hours after collection until use in the assay.
160 μl of the whole blood samples was transferred to each well of the 96-well assay plates filled with compound/OptiMEM. All assay plates were prepared as duplicates with blood from different donors. Blood plates were kept at room temperature for 60 minutes and continuous shaking with 450 rpm, covered with the lid, but not sealed.
20 μl OptiMEM and 9.6:1 Fugene was added to all low control wells.
After covering assay plates with aera seals and the lid, blood plates were kept at room temperature for 30 minutes and continuous shaking with 450 rpm, followed by an overnight incubation of 22 h at 37° C. in the incubator, without shaking.
U-Plex MSD GOLD 96-well Small Spot Strepavidin SECTOR Plates (Meso Scale Diagnostics #L45SA-5) were coated with 25 μl diluted capture antibody. Coated plates were incubated for 60 min at room temperature under continuous shaking at 700 rpm. MSD IFNα-2a plates were washed three times with 150 μl wash buffer (1×HBSS, 0.05% Tween).
After blocking the plates with 100 μl block solution/well (1×HBSS with 0.2% Tween, 2% BSA) for 60 min at room temperature and continuous shaking at 700 rpm, plates were emptied as dry as possible by dumping just before continuing with the human plasma.
Whole Blood assay plates were centrifuged at 1600 rpm for 10 minutes. 25 μl of supernatant was transferred with a pipetting robot from each whole blood plate to the corresponding IFNα-2a plate.
Plates were sealed with microplate seals and kept at room temperature again under continuous shaking at 700 rpm for two hours.
Next MSD IFNα-2a plates were washed three times with 150 μl wash buffer (1×HBSS, 0.05% Tween), before adding 25 μl MSD SULFO-TAG IFNα-2a Antibody solution (1:100 diluted in Diluent 3 (Meso Scale Diagnostics #R50AP-2) to each well of the plates.
Afterwards plates were sealed with microplate seals and kept at room temperature again under continuous shaking at 700 rpm for two hours. Finally, MSD IFNα-2α plates were washed three times with 150 μl wash buffer (1×HBSS, 0.05% Tween). 150 μl 2× Read buffer was added to each well and plates were immediately measured with the MSD Sector S600 Reader using the vendor barcode.
For data evaluation and calculation, % control calculation of each well was based on the mean of high (DNA stimulated control) and mean of low (unstimulated control) controls by using the following formula: [counts(sample)−counts(low))/(counts(high)−counts(low))]*100
The IC50 values were calculated using the standard 4 parameter logistic regression formula. Calculation: [y=(a−d)/(1+(x/c)^b)+d], a=low value, d=high value; x=conc M; c=1C50 M; b=slope

[3] = test system: IFN induction in cGAMP-stimulated THP1 cells; experiment: cGAMP stimulated counter cell assay, THP1-Dual cells, Lucia luciferase reporter (THP1(cGAMP) IC50); assay type: cell-based; settings: Homo sapiens, THP-1, THP1-Dual cells stimulated with 10 μM cGAMP;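 note: IRF-driven Lucia luciferase luminescence after 18 h at 37° C, compound series topping at 10 µM with 1% DMSO, unstimulated wells as 0% and DMSO wells as 100%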
Text: 6.2 Method: Human cGAS Cell Assay and cGAMP Stimulated Counter Cell Assay (THP1(vir) IC50 and THP1(cGAMP) IC50)
THP1-Dual™ cells (InvivoGen #thpd-nfis) expressing IRF dependent Lucia luciferase reporter were used as basis for both assays.
as §1
Compounds were delivered in 10 mM DMSO solution, serially diluted and transferred to the 384 well assay plate (Greiner #781201) using an Echo acoustic dispenser. Typically, 8 concentrations were used with the highest concentration at 10 μM in the final assay volume followed by ˜1:5 dilution steps. DMSO concentration was set to 1% in the final assay volume. The 384 well assay plate contained 21 test compounds (column 1-22), and DMSO in column 23 and 24.
as §2, §3, §4
Data Evaluation and Calculation:
as §5

[4] = test system: cGAS; settings: as disclosed on page 45 of WO 2020/142729; read-out: biochemical (in vitro) IC50-value group; cited from earlier work
[5] = biological target: Human cGAS (Homo sapiens (Human), UniProt Q8N884); experiment: Human cGAS enzyme assay (hcGAS IC50, in vitro), cGAMP formation by RapidFire MS; assay type: biochemical; settings: 45 bp dsDNA, GTP/ATP;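 note: compounds preincubated 60 min, then GTP and ATP (30 µM each) added for 90 min at room temperature, cGAMP read relative to cyclic-di-GMP internal standard, no-enzyme/DNA wells as 0%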
[6] = baculovirus-stimulated THP1-Dual cells, 18 h

Human cGAS, sequence (Q8N884 whole entry): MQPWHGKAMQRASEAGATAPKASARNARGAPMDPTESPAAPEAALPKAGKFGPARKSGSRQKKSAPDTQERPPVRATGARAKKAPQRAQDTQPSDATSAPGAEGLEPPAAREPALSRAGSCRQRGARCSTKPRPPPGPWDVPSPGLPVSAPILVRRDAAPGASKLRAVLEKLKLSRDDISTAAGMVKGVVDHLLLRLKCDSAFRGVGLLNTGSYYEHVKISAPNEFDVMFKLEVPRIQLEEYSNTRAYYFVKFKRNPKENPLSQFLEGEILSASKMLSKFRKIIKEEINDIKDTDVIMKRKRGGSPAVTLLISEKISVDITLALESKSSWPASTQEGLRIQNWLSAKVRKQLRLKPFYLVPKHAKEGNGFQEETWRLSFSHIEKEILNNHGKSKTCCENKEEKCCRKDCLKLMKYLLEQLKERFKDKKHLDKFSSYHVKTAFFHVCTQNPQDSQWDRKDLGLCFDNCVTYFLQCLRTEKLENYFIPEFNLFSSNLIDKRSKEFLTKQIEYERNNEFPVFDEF

Question: Which results are given for `Cc1nc(N2C[C@@H](Cc3nn[nH]n3)C[C@H]2C(=O)O)c2oc3ccccc3c2n1` [Example 25, reference compound]?
Answer: IC50 [1]: 17000 nM; IC50 [1, 6]: > 17000 nM; IC50 [2]: > 9990 nM; IC50 [3]: > 17000 nM; IC50 [4]: < 100 nM

Question: With `C[C@H]1CN(C2COC2)CC[C@]1(F)c1cc(Cl)cnc1O[C@H]1C[C@@H](C(=O)O)N(c2nc(C(F)F)nc3c2oc2ccccc23)C1` [Example 1.23] as the compound, how does the IC50 [5] read?
Answer: The IC50 was 15 nM.

Question: What about the IC50 [1, 6] of the same compound?
Answer: The IC50 was 185 nM.

Question: What about the “Ratio THP(cGAMP) IC50/THP(vir) IC50” value [1] of the same compound?
Answer: The value was 45.

Question: What about the IC50 [2] of the same compound?
Answer: The IC50 was 165 nM.

Question: And the IC50 [3]?
Answer: Its IC50 is 8400 nM.

Question: For `C#Cc1cnc(O[C@H]2C[C@@H](C(=O)O)N(c3nc(C(F)F)nc4c3oc3ccccc34)C2)c([C@]2(F)CCS(=O)(=O)C(C)(C)C2)c1` [Example 1.15], which IC50 [5] is on record?
Answer: Its IC50 is 6 nM.

Question: And the IC50 [1, 6]?
Answer: Its IC50 is 11 nM.

Question: What about the “Ratio THP(cGAMP) IC50/THP(vir) IC50” value [1] of the same compound?
Answer: The value was 963.

Question: And the IC50 [2]?
Answer: The IC50 was 22 nM.

Question: And the IC50 [3]?
Answer: The IC50 was 10200 nM.

Question: With `C#Cc1cnc(O[C@H]2C[C@@H](C(=O)O)N(c3nc(C(F)(F)F)nc4c3oc3ccccc34)C2)c([C@@]2(F)CC(C)(C)S(=O)(=O)C[C@@H]2C)c1` [Example 1.08] as the compound, how does the IC50 [5] read?
Answer: The IC50 was 4 nM.

Question: What about the IC50 [1, 6] of the same compound?
Answer: The IC50 was 4 nM.

Question: What about the “Ratio THP(cGAMP) IC50/THP(vir) IC50” value [1] of the same compound?
Answer: The value was 3275.

Question: And the IC50 [2]?
Answer: The IC50 was 16 nM.

Question: And the IC50 [3]?
Answer: Its IC50 is 13900 nM.

Question: What does the source list for `COC(=O)[C@@H]1C[C@H](Oc2ncc(Cl)cc2[C@@]2(F)CCS(=O)(=O)C[C@@H]2C)CN1c1nc(C(F)F)nc2c1oc1ccccc12` [Example P02]?
Answer: IC50 [5]: > 9950 nM; IC50 [1, 6]: 29 nM; IC50 [2]: 140 nM; IC50 [3]: > 16600 nM

Question: With `N#CN1CCC(F)(c2cc(Cl)cnc2O[C@H]2C[C@@H](C(=O)O)N(c3nc(C(F)F)nc4c3oc3ccccc34)C2)CC1` [Example 2.05] as the compound, how does the IC50 [5] read?
Answer: Its IC50 is 6 nM.

Question: What about the IC50 [1, 6] of the same compound?
Answer: Its IC50 is 718 nM.

Question: And the “Ratio THP(cGAMP) IC50/THP(vir) IC50” value [1]?
Answer: The value was 23.

Question: What about the IC50 [2] of the same compound?
Answer: Its IC50 is 945 nM.

Question: What about the IC50 [3] of the same compound?
Answer: The IC50 was 16700 nM.

Question: What does the source list for `CO[C@]1(c2cc(Cl)cnc2O[C@H]2C[C@@H](C(=O)O)N(c3nc(C(F)F)nc4c3oc3ccccc34)C2)CC(C)(C)S(=O)(=O)C[C@@H]1C` [Example 1.05]?
Answer: IC50 [5]: 2 nM; IC50 [1, 6]: 44 nM; Ratio THP(cGAMP) IC50/THP(vir) IC50 [1]: 298; IC50 [2]: 135 nM; IC50 [3]: 13200 nM

Question: For `C[C@H]1CS(=O)(=O)CC[C@]1(F)c1cc(Cl)cnc1O[C@H]1C[C@@H](C(=O)O)N(c2nc(C(F)(F)F)nc3c2oc2ccccc23)C1` [Example 2.10], which IC50 [5] is on record?
Answer: Its IC50 is 3 nM.

Question: What about the IC50 [1, 6] of the same compound?
Answer: The IC50 was 4 nM.

Question: What about the “Ratio THP(cGAMP) IC50/THP(vir) IC50” value [1] of the same compound?
Answer: Its value is 4605.

Question: And the IC50 [2]?
Answer: The IC50 was 15 nM.

Question: What about the IC50 [3] of the same compound?
Answer: The IC50 was 18800 nM.

Question: For `CC(=O)N1CC[C@](F)(c2cc(Cl)cnc2O[C@H]2C[C@@H](C(=O)O)N(c3nc(C(F)F)nc4c3oc3ccccc34)C2)[C@@H](C)C1` [Example 1.22], which IC50 [5] is on record?
Answer: The IC50 was 4 nM.

Question: What about the IC50 [1, 6] of the same compound?
Answer: The IC50 was 85 nM.

Question: And the “Ratio THP(cGAMP) IC50/THP(vir) IC50” value [1]?
Answer: The value was 189.

Question: What about the IC50 [2] of the same compound?
Answer: Its IC50 is 114 nM.

Question: What about the IC50 [3] of the same compound?
Answer: Its IC50 is 16100 nM.

Question: For `C[C@H]1COCC[C@]1(F)c1cc(-c2cnn(C(F)F)c2)cnc1O[C@H]1C[C@@H](C(=O)O)N(c2nc(C(F)F)nc3c2oc2ccccc23)C1` [Example 6.01, (2S,4S)-4-({5-[1-(Difluoromethyl)-1H-pyrazol-4-yl]-3-[(3S,4R)-4-fluoro-3-methyloxan-4-yl]pyridin-2-yl}oxy)-1-[4-(difluoromethyl)-8-oxa-3,5-diazatricyclo[7.4.0.0^2,7]trideca-1(9),2(7),3,5,10,12-hexaen-6-yl]pyrrolidine-2-carboxylic acid], which IC50 [5] is on record?
Answer: The IC50 was 5 nM.

Question: And the IC50 [1, 6]?
Answer: The IC50 was 35 nM.

Question: And the “Ratio THP(cGAMP) IC50/THP(vir) IC50” value [1]?
Answer: Its value is over 289.

Question: And the IC50 [2]?
Answer: The IC50 was 82 nM.

Question: What about the IC50 [3] of the same compound?
Answer: Its IC50 is over 9990 nM.

Question: For `COc1cncc(-c2cnc(O[C@H]3C[C@@H](C(=O)O)N(c4nc(C(F)F)nc5c4oc4ccccc45)C3)c([C@@]3(F)CCOC[C@@H]3C)c2)c1` [Example 6.02], which IC50 [5] is on record?
Answer: Its IC50 is 6 nM.

Question: And the IC50 [1, 6]?
Answer: Its IC50 is 5 nM.

Question: What about the “Ratio THP(cGAMP) IC50/THP(vir) IC50” value [1] of the same compound?
Answer: The value was over 3212.

Question: And the IC50 [2]?
Answer: Its IC50 is 45 nM.

Question: What about the IC50 [3] of the same compound?
Answer: Its IC50 is over 16600 nM.

Question: Which IC50 [5] does the source give for `C[C@H]1CS(=O)(=O)CC[C@@]1(F)c1cc(Cl)cnc1O[C@H]1C[C@@H](C(=O)O)N(c2nc(C(F)F)nc3c2oc2ccccc23)C1` [Example 1.11] here?
Answer: The IC50 was 2 nM.

Question: And the IC50 [1, 6]?
Answer: Its IC50 is 731 nM.

Question: And the IC50 [2]?
Answer: Its IC50 is 194 nM.

Question: What about the IC50 [3] of the same compound?
Answer: The IC50 was over 16600 nM.

Question: With `O=C(O)[C@@H]1C[C@H](Oc2ncc(Cl)cc2[C@]2(F)CCS(=O)(=O)C3(COC3)C2)CN1c1nc(C(F)F)nc2c1oc1ccccc12` [Example 1.20] as the compound, how does the IC50 [5] read?
Answer: The IC50 was 3 nM.

Question: What about the IC50 [1, 6] of the same compound?
Answer: Its IC50 is 139 nM.

Question: What about the “Ratio THP(cGAMP) IC50/THP(vir) IC50” value [1] of the same compound?
Answer: Its value is 111.

Question: What about the IC50 [2] of the same compound?
Answer: The IC50 was 55 nM.

Question: What about the IC50 [3] of the same compound?
Answer: Its IC50 is 15500 nM.

Question: What does the source list for `CO[C@]1(c2cc(Cl)cnc2O[C@H]2C[C@@H](C(=O)O)N(c3nc(C(F)F)nc4c3oc3ccccc34)C2)CCS(=O)(=O)C[C@@H]1C` [Example 2.06]?
Answer: IC50 [5]: 8 nM; IC50 [1, 6]: 314 nM; Ratio THP(cGAMP) IC50/THP(vir) IC50 [1]: 46; IC50 [2]: 287 nM; IC50 [3]: 14600 nM

Question: For `C[C@H]1CS(=O)(=O)C(C)(C)C[C@]1(F)c1cc(Cl)cnc1O[C@H]1C[C@@H](C(=O)O)N(c2nc(C(F)(F)F)nc3c2oc2ccccc23)C1` [Example 1.06], which IC50 [5] is on record?
Answer: The IC50 was 5 nM.

Question: And the IC50 [1, 6]?
Answer: The IC50 was 12 nM.

Question: And the “Ratio THP(cGAMP) IC50/THP(vir) IC50” value [1]?
Answer: The value was 479.

Question: And the IC50 [2]?
Answer: The IC50 was 24 nM.

Question: What about the IC50 [3] of the same compound?
Answer: Its IC50 is 5820 nM.

Question: Which IC50 [5] does the source give for `C#Cc1cnc(O[C@H]2C[C@@H](C(=O)O)N(c3nc(C(F)F)nc4c3oc3ccccc34)C2)c([C@@]2(F)CCN(C(C)=O)C[C@@H]2C)c1` [Example 2.20] here?
Answer: Its IC50 is 4 nM.

Question: And the IC50 [1, 6]?
Answer: The IC50 was 17 nM.

Question: And the “Ratio THP(cGAMP) IC50/THP(vir) IC50” value [1]?
Answer: Its value is 583.

Question: And the IC50 [2]?
Answer: Its IC50 is 25 nM.

Question: And the IC50 [3]?
Answer: The IC50 was 9890 nM.

Question: Which IC50 [5] does the source give for `C#Cc1cnc(O[C@H]2C[C@@H](C(=O)O)N(c3nc(C(F)(F)F)nc4c3oc3ccccc34)C2)c([C@]2(F)CCOC[C@@H]2C)c1` [Example 1.04] here?
Answer: Its IC50 is 4 nM.

Question: What about the IC50 [1, 6] of the same compound?
Answer: Its IC50 is 378 nM.

Question: And the “Ratio THP(cGAMP) IC50/THP(vir) IC50” value [1]?
Answer: The value was 66.

Question: And the IC50 [2]?
Answer: Its IC50 is 648 nM.

Question: And the IC50 [3]?
Answer: The IC50 was 24900 nM.

Question: With `C#Cc1cnc(O[C@H]2C[C@@H](C(=O)O)N(c3nc(C(F)(F)F)nc4c3oc3ccccc34)C2)c(C2(F)CCS(=O)(=O)CC2)c1` [Example 2.07] as the compound, how does the IC50 [5] read?
Answer: The IC50 was 2 nM.

Question: What about the IC50 [1, 6] of the same compound?
Answer: Its IC50 is 688 nM.

Question: What about the “Ratio THP(cGAMP) IC50/THP(vir) IC50” value [1] of the same compound?
Answer: The value was over 24.

Question: And the IC50 [2]?
Answer: The IC50 was 97 nM.

Question: And the IC50 [3]?
Answer: Its IC50 is over 16600 nM.

Question: Which IC50 [5] does the source give for `O=C(O)[C@@H]1C[C@H](Oc2ncc(Cl)cc2[C@]2(F)CCS(=O)(=O)C3(CCC3)C2)CN1c1nc(C(F)F)nc2c1oc1ccccc12` [Example 1.21] here?
Answer: The IC50 was 5 nM.

Question: And the IC50 [1, 6]?
Answer: The IC50 was 126 nM.

Question: And the “Ratio THP(cGAMP) IC50/THP(vir) IC50” value [1]?
Answer: The value was 74.

Question: What about the IC50 [2] of the same compound?
Answer: Its IC50 is 76 nM.

Question: What about the IC50 [3] of the same compound?
Answer: Its IC50 is 9280 nM.
